pKi: −log10 of the molar value.
Assays:
[1] = target: AKT3 (Homo sapiens, UniProt Q9Y243); test: AKT3 inhibition assay (coupled enzyme assay); assay type: biochemical
Method: Compounds were screened for their ability to inhibit AKT3 using a standard coupled enzyme assay (Fox et al., Protein Sci., (1998) 7, 2249). Assays were carried out in a mixture of 100 mM HEPES 7.5, 10 mM MgCl2, 25 mM NaCl , 1 mM DTT and 1.5% DMSO. Final substrate concentrations in the assay were 170 μM ATP (Sigma Chemicals) and 200 μM peptide (RPRAATF, American Peptide, Sunnyvale, Calif.). Assays were carried out at 30° C. and 45 nM AKT3. Final concentrations of the components of the coupled enzyme system were 2.5 mM phosphoenolpyruvate, 300 μM NADH, 30 μg/ML pyruvate kinase and 10 μg/ml lactate dehydrogenase.
An assay stock buffer solution was prepared containing all of the reagents listed above, with the exception of AKT3, DTT, and the test compound of interest. 56 μl of the stock solution was placed in a 384 well plate followed by addition of 1 μl of 2 mM DMSO stock containing the test compound (final compound concentration 30 μM). The plate was preincubated for about 10 minutes at 30° C. and the reaction initiated by addition of 10 μl of enzyme (final concentration 45 nM) and 1 mM DTT. Rates of reaction were obtained using a BioRad Ultramark plate reader (Hercules, Calif.) over a 5 minute read time at 30° C.

[2] = target: ERK2 (Homo sapiens, UniProt P28482); test: ERK2 inhibition assay (spectrophotometric coupled-enzyme assay); assay type: biochemical; conditions: read-out: ERK2 Inhibitory Activity (Ki class D-F)
Method: The IC50 was evaluated from the rate data as a function of inhibitor concentration. […] The compound numbers correspond to the compound numbers in Table 1.

Chain of ERK2 (P28482 whole entry): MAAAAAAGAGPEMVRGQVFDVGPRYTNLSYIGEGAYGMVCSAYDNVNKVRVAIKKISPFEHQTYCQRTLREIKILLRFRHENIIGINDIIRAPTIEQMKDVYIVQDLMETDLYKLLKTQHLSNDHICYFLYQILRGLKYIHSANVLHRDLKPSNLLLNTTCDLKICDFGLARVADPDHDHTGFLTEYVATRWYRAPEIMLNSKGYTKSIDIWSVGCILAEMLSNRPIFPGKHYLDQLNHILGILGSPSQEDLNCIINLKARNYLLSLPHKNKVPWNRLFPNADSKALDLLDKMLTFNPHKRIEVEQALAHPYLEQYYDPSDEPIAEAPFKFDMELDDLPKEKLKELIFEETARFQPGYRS
Chain of AKT3 (Q9Y243 whole entry, species assumed): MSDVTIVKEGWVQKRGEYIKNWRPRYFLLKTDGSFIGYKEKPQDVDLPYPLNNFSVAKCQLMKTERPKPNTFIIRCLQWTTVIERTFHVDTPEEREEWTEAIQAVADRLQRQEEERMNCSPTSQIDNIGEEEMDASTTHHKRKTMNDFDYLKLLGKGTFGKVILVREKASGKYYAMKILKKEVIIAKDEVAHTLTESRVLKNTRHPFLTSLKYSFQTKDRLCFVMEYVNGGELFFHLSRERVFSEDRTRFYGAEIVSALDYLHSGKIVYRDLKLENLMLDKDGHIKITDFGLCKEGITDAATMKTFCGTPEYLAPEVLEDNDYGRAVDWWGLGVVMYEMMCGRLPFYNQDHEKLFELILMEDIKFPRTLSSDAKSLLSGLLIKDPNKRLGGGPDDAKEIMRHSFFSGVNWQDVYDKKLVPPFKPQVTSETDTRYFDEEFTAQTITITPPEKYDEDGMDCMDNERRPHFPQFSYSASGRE

inhibit AKT3 [1]: inhibit AKT3
pKi [2]: > 7.00
SMILES: Cc1cnc(NC#N)nc1-c1c[nH]c(C(=O)NC(CO)c2ccccc2)c1 (centres unmarked) [III-a-238, 4-(2-Cyanoamino-5-methyl-pyrimidin-4-yl)-1H-pyrrole-2-carboxylic acid (2-hydroxy-1-phenyl-ethyl)-amide]

From patent US7253187B2, “Heterocyclic inhibitors of ERK2 and uses thereof” (Vertex Pharmaceuticals Incorporated, priority 2001, dated 2007)
